# Test results: ChEMBL document CHEMBL2074205, “Inhibitory potencies of 1,4-dihydropyridine calcium antagonists to P-glycoprotein-mediated transport: comparison with the effects on CYP3A4” (Pharm Res, 2000)
# Key:
# Format in all cases: functional, cell-based
# [1] = biological target: T1, ATP-dependent translocase ABCB1 (Homo sapiens, UniProt P08183); assay: TP_TRANSPORTER: inhibition of Daunorubicin transepithelial transport (basal to apical) (Daunorubicin: 0.035 uM) in MDR1-expressing LLC-PK1 cells
# T1 sequence (P08183 whole entry): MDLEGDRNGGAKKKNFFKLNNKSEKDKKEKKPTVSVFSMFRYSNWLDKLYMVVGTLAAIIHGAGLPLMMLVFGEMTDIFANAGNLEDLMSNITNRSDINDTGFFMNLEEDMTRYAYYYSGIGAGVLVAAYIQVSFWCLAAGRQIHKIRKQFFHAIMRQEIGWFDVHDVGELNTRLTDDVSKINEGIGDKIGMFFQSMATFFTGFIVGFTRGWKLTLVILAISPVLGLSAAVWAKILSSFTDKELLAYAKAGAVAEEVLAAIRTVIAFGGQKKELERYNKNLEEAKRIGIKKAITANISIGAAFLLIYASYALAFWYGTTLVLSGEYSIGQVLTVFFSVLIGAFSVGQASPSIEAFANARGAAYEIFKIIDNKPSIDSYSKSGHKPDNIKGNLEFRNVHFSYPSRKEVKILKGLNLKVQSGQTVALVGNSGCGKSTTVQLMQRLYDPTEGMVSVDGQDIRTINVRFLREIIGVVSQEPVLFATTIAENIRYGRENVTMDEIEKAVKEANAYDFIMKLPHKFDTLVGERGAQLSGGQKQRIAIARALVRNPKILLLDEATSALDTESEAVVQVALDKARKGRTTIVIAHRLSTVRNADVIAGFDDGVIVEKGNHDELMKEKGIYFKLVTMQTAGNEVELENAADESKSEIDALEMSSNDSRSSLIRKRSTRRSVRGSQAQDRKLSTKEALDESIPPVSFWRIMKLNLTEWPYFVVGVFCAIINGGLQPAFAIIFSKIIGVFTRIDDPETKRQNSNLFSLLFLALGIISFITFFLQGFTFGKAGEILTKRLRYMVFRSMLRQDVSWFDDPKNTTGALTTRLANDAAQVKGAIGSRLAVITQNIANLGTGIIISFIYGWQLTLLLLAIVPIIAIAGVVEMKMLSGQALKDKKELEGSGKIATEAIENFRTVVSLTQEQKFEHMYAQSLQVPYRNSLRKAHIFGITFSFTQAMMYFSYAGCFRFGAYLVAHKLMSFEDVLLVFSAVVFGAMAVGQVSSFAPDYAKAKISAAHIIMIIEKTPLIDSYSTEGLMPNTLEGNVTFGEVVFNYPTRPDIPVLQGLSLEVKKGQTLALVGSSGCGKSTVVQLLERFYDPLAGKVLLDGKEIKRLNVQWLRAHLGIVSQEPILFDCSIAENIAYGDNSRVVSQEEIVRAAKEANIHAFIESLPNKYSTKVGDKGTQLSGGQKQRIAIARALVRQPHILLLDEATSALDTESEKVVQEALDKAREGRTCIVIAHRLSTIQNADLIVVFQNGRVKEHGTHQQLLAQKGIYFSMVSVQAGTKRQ
# [2] = biological target: T1, ATP-dependent translocase ABCB1; assay: TP_TRANSPORTER: inhibition of Daunorubicin transepithelial transport (basal to apical), (-)-efonidipine (Daunorubicin: 0.035 uM) in MDR1-expressing LLC-PK1 cells
# [3] = biological target: T1, ATP-dependent translocase ABCB1; assay: TP_TRANSPORTER: inhibition of Daunorubicin transepithelial transport (basal to apical), (+)-efonidipine (Daunorubicin: 0.035 uM) in MDR1-expressing LLC-PK1 cells
SMILES,IC50 [1] [µM],IC50 [2] [µM],IC50 [3] [µM]
COC(=O)C1=C(C)NC(C)=C(C(=O)O[C@@H]2CCCN(Cc3ccccc3)C2)C1c1cccc([N+](=O)[O-])c1 (stereo partly specified),9.5,–,–
CCOC(=O)C1=C(COCCN)NC(C)=C(C(=O)OC)C1c1ccccc1Cl (stereo unspecified) [AMLODIPINE],22,–,–
COC(=O)C1=C(C)NC(C)=C(C(=O)O[C@H]2CCN(Cc3ccccc3)C2)[C@H]1c1cccc([N+](=O)[O-])c1 [BARNIDIPINE],8.6,–,–
CC1=C(C(=O)OCCN(Cc2ccccc2)c2ccccc2)C(c2cccc([N+](=O)[O-])c2)C(P2(=O)OCC(C)(C)CO2)=C(C)N1 (stereo unspecified) [EFONIDIPINE],–,17.3,20.6
COC(=O)C1=C(C)NC(C)=C(C(=O)OCCN2CCN(C(c3ccccc3)c3ccccc3)CC2)C1c1cccc([N+](=O)[O-])c1 (stereo unspecified) [MANIDIPINE 6300],4.6,–,–
